# Assay results taken from patent US20250296940A1, “ANNULATED 2-AMINO-3-CYANO THIOPHENES AND DERIVATIVES FOR THE TREATMENT OF CANCER” (Boehringer Ingelheim Int'l GmbH Corp., priority 2021, published 2025).
# Tests used:
# [1] = Caco-2 assay; assay type: in vitro ADME; conditions: human, 10 μM compound; for Papp A→B at 90 min, 10 μM: apical to basolateral, pH 7.4, read-out: Caco PappAB; for efflux ratio at 90 min, 10 μM: efflux ratio PappBA/PappAB, pH 7.4, read-out: Caco ER
# Excerpt: The assay provides information on the potential of a compound to pass the cell membrane, on the extent of oral absorption as well as on whether the compound is actively transported by uptake and/or efflux transporters. Permeability measurements across polarized, confluent Caco-2 cell monolayers grown on permeable filter supports (Corning, catalog #3391) are used. […] The receiver and donor compartments contain 0.25% bovine serum albumine (BSA) in assay buffer. Passive diffusion and/or active transport of compounds across the monolayer is measured in both apical to basolateral (a-b) and basolateral to apical (b-a) direction. a-b permeability (PappAB) represents drug absorption from the intestine into the blood and b-a permeability (PappBA) drug secretion from the blood back into the intestine via both passive permeability as well as active transport mechanisms mediated by efflux and uptake transporters that are expressed on the Caco-2 cells. After a pre-incubation of 25-30 min at 37° C., at predefined time points (0, 30, 60 and 90 min), samples were taken from the receiver and donor compartment, respectively. Concentrations of test compounds in samples were measured by HPLC/MS/MS, samples from the donor compartment were diluted 1:50 (v:v) with assay buffer, samples from receiver compartment were measured without dilution.
# Apparent permeabilities in a-b (PappAB) and b-a (PappBA) directions are calculated according to the formula:
# [formula] • Vrec [mL]: buffer volume in receiver compartment • Cdon [μmol/mL]: concentration of test compound in donor compartment at t=0 • ΔCrec: difference between concentrations of test compound in receiver compartment at start and end of incubation time • Δt: Incubation time • Vrec·ΔCrec/Δt [μmol/min]: Amount of compound transferred to receiver compartment per time • A [cm^2]: filter surface
# Caco-2 efflux ratios (ER) are calculated as the ratio of PappBA/PappAB.
# (§1) Data obtained with the disclosed assay for a selection of compounds (I) according to the invention: […]
# [2] = biological target: T1, CYP3A4 (Homo sapiens, UniProt P08684); experiment: Mechanism based inhibition of CYP3A4 assay (MBI 3A4); assay type: in vitro ADME; conditions: human liver microsomes, 25 uM compound; hydroxy-midazolam formation after 30 min preincubation relative to 0 min
# T1 construct: assayed in human liver microsomes (0.02 mg/mL) with midazolam (15 μM) as a substrate; from tissue; host or cells: human liver microsomes
# Description: The time dependent inhibition towards CYP3A4 is assayed in human liver microsomes (0.02 mg/mL) with midazolam (15 μM) as a substrate. The test compounds and water control (wells w/o test compound) are preincubated in presence of NADPH (1 mM) with human liver microsomes (0.2 mg/mL) at a concentration of 25 uM for 0 min and 30 min. After preincubation, the incubate is diluted 1:10 and the substrate midazolam is added for the main incubation (15 min). The main incubation is quenched with acetonitrile and the formation of hydroxy-midazolam is quantified via LC/MS-MS. The formation of hydroxy-midazolam from the 30 min preincubation relative to the formation from the 0 min preincubation is used as a readout. Values of less than 100% mean that the substrate midazolam is metabolized to a lower extent upon 30 min preincubation compared to 0 min preincubation. In general low effects upon 30 min preincubation are desired (corresponding to values close to 100%/not different to the values determined with water control).
# as §1
# [3] = test system: NCI-H2122 cells (NSCLC, G12C); experiment: NCI-H2122 CTG proliferation assay (120 h); assay type: cell-based; conditions: Homo sapiens, NCI-H2122, CellTiter-Glo
# Description: The CTG assay is designed to measure quantitatively the proliferation of NCI-H2122 cells (ATCC CRL-5985), using the CellTiter Glow Assay Kit (Promega G7571). Cells are grown in RPMI medium (ATCC) supplemented with Fetal Calf Serum (Life Technologies, Gibco BRL, Cat. No. 10270-106). On “day 0” 200 NCI-H2122 cells are seeded in 60 μL RPMI ATCC+10% FCS+ Penstrep in a black 384-well plate, flat and clear bottom (Greiner, PNr. 781091). Cells are then incubated in the plates at 37° C. in a CO2 incubator overnight. On day 1, compounds (10 mM stock in DMSO) are added with the ECHO acoustic liquid handler system (Beckman Coulter), including DMSO controls. Plates are incubated for 120 h, and cell viability is measured using CellTiter-Glo luminescent cell viability reagent (Promega product code G7570). Viability (stated as percent of control) is defined as relative luminescence units RLU of each well divided by the RLU of cells in DMSO controls. IC50 values are determined from viability measurements by non-linear regression using a four parameter model.
# IC50 values of representative compounds according to the invention measured with these assays in the indicated cell lines: […]
# T1 sequence (P08684 whole entry): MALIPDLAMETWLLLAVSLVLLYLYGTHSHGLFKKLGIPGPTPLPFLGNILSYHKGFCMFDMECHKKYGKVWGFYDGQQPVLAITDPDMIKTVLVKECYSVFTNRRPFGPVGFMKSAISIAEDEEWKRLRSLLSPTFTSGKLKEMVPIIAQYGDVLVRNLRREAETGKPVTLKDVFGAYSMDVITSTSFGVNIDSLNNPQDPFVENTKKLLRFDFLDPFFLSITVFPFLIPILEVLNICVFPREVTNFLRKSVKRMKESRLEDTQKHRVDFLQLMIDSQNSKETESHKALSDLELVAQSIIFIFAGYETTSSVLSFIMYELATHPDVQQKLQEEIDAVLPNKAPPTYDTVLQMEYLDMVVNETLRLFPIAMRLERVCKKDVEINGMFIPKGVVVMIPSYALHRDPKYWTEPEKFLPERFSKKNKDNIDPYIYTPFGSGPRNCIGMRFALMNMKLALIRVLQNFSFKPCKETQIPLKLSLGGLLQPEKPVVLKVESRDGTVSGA
Compound,"Papp A→B at 90 min, 10 μM [1]","efflux ratio at 90 min, 10 μM [1]",MBI 3A4 [2],IC50 [3]
C=C(F)C(=O)N1[C@@H](C)CN(c2cc(O[C@@H](C)[C@@H]3CCCN3C)nc(-c3onc4c3CCC[C@@]43CCCc4sc(N)c(C#N)c43)n2)C[C@@H]1C [Ia-1],4.4 ×10⁻⁶ cm/s,3.6,61%,
C=CC(=O)N1[C@@H](C)CN(c2cc(O[C@@H](C)[C@@H]3CCCN3C)nc(-c3onc4c3CCC[C@@]43CCCc4sc(N)c(C#N)c43)n2)C[C@@H]1C [Ia-2],2.9 ×10⁻⁶ cm/s,8.6,62%,0.002 µM
C=C(F)C(=O)N1[C@@H](C)CN(c2cc(-c3onc4c3CCC[C@@]43CCCc4sc(N)c(C#N)c43)nc(O[C@@H](C)[C@@H]3CCCN3C)n2)C[C@@H]1C [Ia-3],,,,0.096 µM
C=CC(=O)N1[C@@H](C)CN(c2cc(-c3onc4c3CCC[C@@]43CCCc4sc(N)c(C#N)c43)nc(O[C@@H](C)[C@@H]3CCCN3C)n2)C[C@@H]1C [Ia-4],1.3 ×10⁻⁶ cm/s,30.7,,0.004 µM
C[C@H](Oc1cc(N2C[C@H](C)N(C(=O)/C=C/CF)[C@@H](C)C2)nc(-c2noc3c2CCC[C@@]32CCCc3sc(N)c(C#N)c32)n1)[C@@H]1CCCN1C [Ib-1],0.8 ×10⁻⁶ cm/s,28.6,,0.029 µM
C=CC(=O)N1CCN(c2cc(O[C@@H](C)[C@@H]3CCCN3C)nc(-c3noc4c3CCC[C@@]43CCCc4sc(N)c(C#N)c43)n2)CC12CC2 [Ib-2],,18.2,,0.019 µM
C=CC(=O)N1[C@@H](C)CN(c2cc(O[C@@H](C)[C@@H]3CCCN3C)nc(-c3noc4c3CCC[C@@]43CCCc4sc(N)c(C#N)c43)n2)C[C@@H]1C [Ib-3],6.3 ×10⁻⁶ cm/s,3,65%,
C=CC(=O)N1[C@@H](C)CN(c2cc(-c3noc4c3CCC[C@@]43CCCc4sc(N)c(C#N)c43)nc(O[C@@H](C)[C@@H]3CCCN3C)n2)C[C@@H]1C [Ib-4],3.1 ×10⁻⁶ cm/s,12.3,78%,
C=C(F)C(=O)N1[C@@H](C)CN(c2cc(O[C@@H](C)[C@@H]3CCCN3C)nc(-c3noc4c3CCC[C@@]43CCCc4sc(N)c(C#N)c43)n2)C[C@@H]1C [Ib-5],11 ×10⁻⁶ cm/s,1.1,69%,0.021 µM
C=C(F)C(=O)N1[C@@H](C)CN(c2cc(-c3noc4c3CCC[C@@]43CCCc4sc(N)c(C#N)c43)nc(O[C@@H](C)[C@@H]3CCCN3C)n2)C[C@@H]1C [Ib-6],9.2 ×10⁻⁶ cm/s,1.7,64%,0.035 µM
C[C@H](Oc1nc(-c2noc3c2CCC[C@@]32CCCc3sc(N)c(C#N)c32)cc(N2C[C@H](C)N(C(=O)/C=C/CF)[C@@H](C)C2)n1)[C@@H]1CCCN1C [Ib-7],2.4 ×10⁻⁶ cm/s,10.4,62%,0.19 µM
C[C@H](Oc1nc(-c2noc3c2CCC[C@@]32CCCc3sc(N)c(C#N)c32)cc(N2C[C@H](C)N(C(=O)/C=C/c3cccnc3)[C@@H](C)C2)n1)[C@@H]1CCCN1C [Ib-8],,,,0.999 µM
COC/C=C/C(=O)N1[C@@H](C)CN(c2cc(-c3noc4c3CCC[C@@]43CCCc4sc(N)c(C#N)c43)nc(O[C@@H](C)[C@@H]3CCCN3C)n2)C[C@@H]1C [Ib-9],2.4 ×10⁻⁶ cm/s,7.5,68%,2.25 µM
